# According to patent publication US5283256A, “Cholesterol-lowering agents” (Merck & Co., Inc., priority 1992, dated 1994):
# What was measured:
# [1] = target: farnesyl transferase (Homo sapiens, UniProt P49354+P49356); assay: Farnesyl-transferase assay (Ras farnesylation in vitro); assay type: biochemical; conditions: ras-CVLS, 3H-FPP 100 nM; 60 min, room temperature; read-out: Farnesyl transferase IC50 (inhibition of Ras farnesylation in vitro)
# Protocol: FARNESYL-TRANSFERASE ASSAY
# I. PREPARATION OF SOLUTIONS REQUIRED FOR THE ASSAY
# 203.3 g MgCl2 was dissolved in 1.0 L distilled water, and filtered through a sterile filter and stored at 4° C.
# 264.5 g of HEPES was added to 700 mL distilled water followed by 56 mL of 1.0M MgCl2 The pH was adjusted to 7.5 with sodium hydroxide and the volume was brought to 1000 mL. The solution was filtered through a sterile filter and stored at 4° C.
# iii. 0.5M Dithiothreitol (DTT, MW=154.24)
# 77.12 mg of DTT was dissolved in 1.0 mL of distilled water. A few drops of 10N NaOH was added to get the DTT to go into solution. 0.5M DTT was divided into 500 μL aliquots and stored at -20° C.
# iv. Preparation of Assay Buffer (Prepare fresh daily)
# 100 μL of 0.5M DTT was added to 900 μL of 1.1M HEPES, pH 7.5 and 55.5 mM MgCl2 to yield a 10X buffer consisting of 1.0M HEPES, pH 7.5, 50 mM MgCl2 and 50 mM DTT.
# v. Preparation of ^3 H-FPP
# The ^3 H-FPP (NEN #NET-1042, MW=433.3) was used directly from the bottle as provided by NEN. The stock concentration of the ^3 H-FPP was 25 μM.
# vi. Preparation of the reaction mix for Totals and unknown samples (on ice)
# The reaction mix was prepared as below: […]
# x. The filter mats were placed in counting bags, 30 mL of LKB β-scint cocktail was added and the filter mats were counted for 120 sec in the LKB β-plate counter […]
# Percent inhibition was calculated according to the following equation: [formula] […]
# [2] = target: T1, squalene synthase (human HepG2 enzyme) (Homo sapiens, UniProt P37268); assay: Squalene synthase assay, human HepG2 cell enzyme; assay type: biochemical; conditions: 3H-farnesyl pyrophosphate, 30° C., 20 min
# T1 construct: The resulting pellet from the 100,000×g centrifugation, containing the squalene synthase; endogenous in cells; host or cells: HepG2 (ATCC HB 8065), microsomal pellet of sonicated cells
# T1 sequence (P37268 1-417): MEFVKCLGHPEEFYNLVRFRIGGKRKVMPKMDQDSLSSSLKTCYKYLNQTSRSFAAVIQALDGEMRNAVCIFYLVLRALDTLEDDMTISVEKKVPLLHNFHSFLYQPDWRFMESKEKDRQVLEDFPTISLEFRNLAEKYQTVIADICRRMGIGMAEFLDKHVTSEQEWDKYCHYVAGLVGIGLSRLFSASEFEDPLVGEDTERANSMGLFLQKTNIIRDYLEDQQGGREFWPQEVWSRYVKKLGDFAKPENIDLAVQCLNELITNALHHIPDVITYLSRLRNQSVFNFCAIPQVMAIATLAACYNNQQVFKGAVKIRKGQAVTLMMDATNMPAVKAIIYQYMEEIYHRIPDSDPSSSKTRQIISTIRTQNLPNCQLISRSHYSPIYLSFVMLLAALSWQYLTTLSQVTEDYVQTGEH
# Protocol: The intrinsic squalene synthase inhibitory activity of representative compounds of this invention was measured by the standard in vitro protocol described below:
# PREPARATION OF HUMAN HepG2 Cell ENZYME
# 1. SOURCE: HEPG2 CELL LINE (Liver, hepatoblastoma, Human) ATCC No. HB 8065
# 2. CELL GROWTH AND MAINTENANCE
# Culture Medium: Minimum essential medium (MEM) with non-essential amino acids, sodium pyruvate, and 10% fetal bovine serum. The medium was changed twice weekly. […] The growth medium was prepared as listed below.
# SUBCULTURE PROCEDURE: The medium was removed and washed with PBS (Phosphate-Buffered Saline 15.6 mM, pH 7.0). Fresh trypsin (0.25%)-EDTA (0.02%) with Hank's Balanced Salt solution was added and the flask was allowed to stand for a minute before the trypsin solution was removed. The flask was incubated at 37° C. until cells detached. Fresh medium was added and the cells were dispersed and dispensed into new flasks. Subcultivation ratio: 1:6. […]
# HARVEST: The medium was removed and the cells were washed with PBS. […] Cells were counted (2.5×10^9 yield from 18 flasks (75 cm^2)), and resuspended in 10 mL of 50mM HEPES (N-[2-Hydroxyethyl]piperazine-N'-[2-ethane sulfonic acid]) containing 5 mM MgCl2, 2 mM MnCl2, 10 mM DTT, pH 7.5 (enzyme suspension buffer). […]
# [3] = target: T2, squalene synthase (rat liver enzyme) (Rattus norvegicus, UniProt Q02769); assay: Squalene synthase assay, rat liver microsomes; assay type: biochemical; conditions: 3H-farnesyl pyrophosphate, 30° C., 20 min
# T2 construct: from tissue; host or cells: liver microsomes of male Charles River CD rats fed lovastatin
# T2 sequence (Q02769 1-416): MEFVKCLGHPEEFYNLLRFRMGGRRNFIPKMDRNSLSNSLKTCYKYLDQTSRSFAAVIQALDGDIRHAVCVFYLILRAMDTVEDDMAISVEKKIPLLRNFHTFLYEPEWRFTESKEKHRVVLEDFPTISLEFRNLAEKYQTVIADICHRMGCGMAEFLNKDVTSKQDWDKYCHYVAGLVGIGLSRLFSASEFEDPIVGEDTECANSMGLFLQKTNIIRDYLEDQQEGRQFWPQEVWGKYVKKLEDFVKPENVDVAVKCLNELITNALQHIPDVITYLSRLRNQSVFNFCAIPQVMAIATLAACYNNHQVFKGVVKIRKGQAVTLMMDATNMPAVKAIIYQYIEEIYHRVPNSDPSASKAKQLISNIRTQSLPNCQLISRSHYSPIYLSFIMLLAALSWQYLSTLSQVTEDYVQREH
# Protocol: The intrinsic squalene synthase inhibitory activity of representative compounds of this invention was measured by the standard in vitro protocol described below: […] Male, CHARLES RIVER CD rats (120 to 150 g) were fed a diet containing 0.1% lovastatin for 4 days. […] The homogenate was centrifuged twice at 20,000×g for 15 min. at 4° C., discarding the pellet each time. The supernatant was then centrifuged at 100,000×g for 1 hr at 4° C. The resulting microsomal pellet was resuspended in a volume of the above homogenizing buffer equal to one-fifth the volume of the original homogenate. […] The microsomal suspensions were stored in aliquots at -70° C. squalene synthase activity in these aliquots is stable for a least several months. Squalene Synthase Assay Reactions were performed in 1.2 mL polypropylene tube strips of 8. Buffer mixture and substrate mixture for the assay were prepared from the following solution: Buffer mixture contains 270 mM HEPES, pH 7.5, 20 mM Potassium fluoride and 5.4 mM Dithiothreitol (DTT). […] 400 μL of heptane layer was then removed into a minivial and mixed with 2.5 mL of scintillation fluid and the radioactivity was determined by liquid scintillation counting. […] Percent inhibition is calculated by the formula: [formula] IC50 values were determined by plotting the log of the concentration of the test compound versus the percentage inhibition. […]
# [4] = tested on: Ras farnesylation; conditions: Hancock et al., Casey et al., Schafer et al.; cited from earlier work
IC50 [1] [nM],IC50 [2] [nM],IC50 [3] [nM],SMILES,Inhibition of Ras farnesylation in vivo (in words) [4]
100,2,6,CCCCCCCCCC(=O)OC1C(O)C2(CCCC(OC(C)=O)C(C)C/C=C/c3ccccc3)OC(C(=O)O)C(O)(C(=O)O)C1(C(=O)O)O2 (centres unmarked) [Zaragozic Acid D2],
100,1,6,CCCCCCCC(=O)OC1C(O)C2(CCCC(OC(C)=O)C(C)C/C=C/c3ccccc3)OC(C(=O)O)C(O)(C(=O)O)C1(C(=O)O)O2 (centres unmarked) [Zaragozic Acid D],
,,,CC[C@H](C)C(=O)O[C@H]1CCC=C2C=C[C@H](C)[C@H](CC[C@@H]3C[C@@H](O)CC(=O)O3)[C@H]21 [compactin],Inhibition of Ras farnesylation in vivo has been demonstrated
,,,CC[C@H](C)C(=O)O[C@H]1C[C@@H](C)C=C2C=C[C@H](C)[C@H](CC[C@@H]3C[C@@H](O)CC(=O)O3)[C@H]21 [lovastatin],Inhibition of Ras farnesylation in vivo has been demonstrated
